US20250163052A1, “cGAS INHIBITORS AND USES THEREOF” (Cornell University, priority 2022, published 2025)

Assays:
[1] = system: IFNB; experiment: THP1-Dual cells transfected with DNA, Ifnb expression (Quantiluc); type: cell-based; conditions: Homo sapiens; for inhibition at 10 µM: THP-1, 10 μM; for inhibition at 30 µM: THP-1, 30 μM
Description: (§1) Evaluation of active cGAS inhibitors in THP1 cells (Table 3). Cellular activity of all compounds (in Table 3) was determined using THP1-Dual™ cells as described (Lama et. al., 2019). THP1-Dual™ cells (Invivogen) (50000 cells in 100 μl media) were seeded into each well of a 96-well plate and treated with compounds at various dilution for 4 hours. Subsequently, cells were transfected with DNA (2 ug/ml) and lipofectamine and incubate the cells were incubated overnight. Ifnb expression was measured in cell supernatant using Quantiluc, nfkb expression was determined using Quantiblue, and cell viability using Promega® CellTiter-Glo®.

[2] = system: THP1 cells; experiment: THP1-Dual cells, cell viability (CellTiter-Glo); type: cell-based
Description: as §1

[3] = molecular target: h-cGAS (Homo sapiens, UniProt Q8N884); experiment: Cell-free human cGAS enzyme inhibition assay (ATP depletion, Kinase-Glo Max); type: biochemical; conditions: 3 h; for inhibition at 1 µM: read-out: h-cGAS, conc. 1 μM; for inhibition at 10 µM: read-out: h-cGAS, conc. 10 μM
Description: (§2) Cell-free mouse and human cGAS enzyme inhibition assay (Table 2). Activity of all compounds (in Table 1) against m-cGAS (30 nM) and or h-cGAS, (100 nM) was determined by measuring the conversion of ATP and GTP (100 μM each) to cGAMP in the presence of dsDNA (5 ug/mL) in a reaction buffer composed of Tris-HCl (20 mM, pH7.4), NaCl (150 mM), MnCl2 (0.2 mM, h-cGAS) or MgCl2 (5 mM, m-cGAS) and Tween-20 (0.01%), and the remaining ATP concentration using Kinase-Glo®Max Luminescent Kinase Assay (Promega, Madison, WI), as described (Lama, et. al., 2019). Briefly, 10 μl of a master mix of 0.4 mM ATP, 0.4 mM GTP, 0.02 mg/mL dsDNA in the reaction buffer supplemented with 2 mM DTT was added to reaction wells containing TDI-6570 or TDI-8246 (2× of the desired concentration) in the same buffer ([…]) using a Thermo 8-channel Multidrop Combi dispenser. Next, 10 μl of a 4×m-cGAS (0.120 μM) or h-cGAS (0.4 μM) solution in the reaction buffer supplemented with 2 mM DTT was added to appropriate wells. Similar sets of reactions without cGAS or the inhibitor was set by adding the buffer alone. The reactions with the plates sealed were incubated at 37° C. (1 hour for m-cGAS and 3 hours for h-cGAS) and stopped by addition of 40 μl of the Kinase-Glo®Max. The luminescence was recorded in relative light units (RLUs) using a Biotek Synergy H1 Hybrid plate reader (BioTek, Winooski, VT). […] All reactions were run in triplicates and calculated using GraphPad Prism 9. The values represent mean IC50±S.D.

[4] = system: NFkB-SEAP; experiment: THP1-Dual cells transfected with DNA, nfkb expression (Quantiblue); type: cell-based; conditions: Homo sapiens; for inhibition at 10 µM: THP-1, 10 μM; for inhibition at 30 µM: THP-1, 30 μM
Description: as §1

[5] = molecular target: m-cGAS (Mus musculus, UniProt Q8C6L5); experiment: Cell-free mouse cGAS enzyme inhibition assay (ATP depletion, Kinase-Glo Max); type: biochemical; conditions: 1 h; for inhibition at 10 µM: read-out: m-cGAS, conc. 10 μM; for inhibition at 1 µM: read-out: m-cGAS, conc. 1 μM
Description: as §2

Sequence of m-cGAS (Q8C6L5 whole entry): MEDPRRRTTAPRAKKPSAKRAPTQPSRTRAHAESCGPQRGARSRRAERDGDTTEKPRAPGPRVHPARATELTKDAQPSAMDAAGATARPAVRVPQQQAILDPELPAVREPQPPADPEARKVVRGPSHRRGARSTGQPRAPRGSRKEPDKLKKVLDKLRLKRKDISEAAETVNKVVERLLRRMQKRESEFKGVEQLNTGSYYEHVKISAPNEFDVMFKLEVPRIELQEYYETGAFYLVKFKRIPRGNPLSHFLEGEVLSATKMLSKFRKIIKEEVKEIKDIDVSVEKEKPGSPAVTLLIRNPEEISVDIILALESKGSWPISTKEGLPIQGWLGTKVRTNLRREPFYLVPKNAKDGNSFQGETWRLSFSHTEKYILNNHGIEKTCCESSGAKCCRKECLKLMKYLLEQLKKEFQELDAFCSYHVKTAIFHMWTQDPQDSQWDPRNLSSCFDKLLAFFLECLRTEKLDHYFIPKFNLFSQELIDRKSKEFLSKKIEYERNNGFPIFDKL
Sequence of h-cGAS (Q8N884 whole entry): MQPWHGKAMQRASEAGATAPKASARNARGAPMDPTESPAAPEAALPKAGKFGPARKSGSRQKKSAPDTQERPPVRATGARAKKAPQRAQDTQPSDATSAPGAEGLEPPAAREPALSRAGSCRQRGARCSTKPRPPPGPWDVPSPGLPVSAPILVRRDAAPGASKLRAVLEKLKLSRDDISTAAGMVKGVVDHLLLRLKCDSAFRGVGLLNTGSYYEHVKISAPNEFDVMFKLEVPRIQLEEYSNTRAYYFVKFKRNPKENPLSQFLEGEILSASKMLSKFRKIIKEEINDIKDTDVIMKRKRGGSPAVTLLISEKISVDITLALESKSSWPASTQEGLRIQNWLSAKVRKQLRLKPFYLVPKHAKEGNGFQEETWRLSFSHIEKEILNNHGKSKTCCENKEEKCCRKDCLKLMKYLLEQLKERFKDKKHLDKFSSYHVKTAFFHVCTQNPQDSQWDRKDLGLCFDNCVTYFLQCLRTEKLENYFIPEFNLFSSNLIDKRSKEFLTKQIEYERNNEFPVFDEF

Compound | inhibition at 10 µM [1] [%] | inhibition at 30 µM [1] [%] | Cell viability 10 μM [2] | Cell viability 30 μM [2] | inhibition at 1 µM [3] [%] | inhibition at 10 µM [3] [%] | inhibition at 10 µM [4] [%] | inhibition at 30 µM [4] [%] | inhibition at 10 µM [5] [%] | inhibition at 1 µM [5] [%]
NCC(=O)N1CCc2c(sc3c(Cl)c(Cl)cc(-c4ccc(N)nc4)c23)C1 [Compound 75] | 75 to 100 | 75 to 100 | +++ (+, ++, and +++ mean the compound respectively shows 25-49%; 50-74%; or 75-100% viability to cells) | +++ (+, ++, and +++ mean the compound respectively shows 25-49%; 50-74%; or 75-100% viability to cells) | 0 to 24 | 50 to 74 | < 24 | 75 to 100 | 75 to 100 | –
NCC(=O)N1CCc2c(sc3c(Cl)c(Cl)cc(-c4cncs4)c23)C1 [Compound 87] | 75 to 100 | 75 to 100 | − (Cell viability <24%, in THP1 cells is expressed as “−”) | − (Cell viability <24%, in THP1 cells is expressed as “−”) | 0 to 24 | 50 to 74 | 50 to 74 | 75 to 100 | 75 to 100 | 25 to 49
Cn1cc(-c2cc(Cl)c(Cl)c3c2c2c(n3C)CCN(C(=O)CNC(=O)OC(C)(C)C)C2)cn1 [Compound 10] | < 24 | 75 to 100 | +++ (+, ++, and +++ mean the compound respectively shows 25-49%; 50-74%; or 75-100% viability to cells) | +++ (+, ++, and +++ mean the compound respectively shows 25-49%; 50-74%; or 75-100% viability to cells) | – | 75 to 100 | < 24 | 50 to 74 | 0 to 24 | –
Cn1ccc(-c2cc(Cl)c(Cl)c3c2c2c(n3C)CCN(C(=O)C(C)(C)O)C2)n1 [Compound 5] | < 24 | < 24 | +++ (+, ++, and +++ mean the compound respectively shows 25-49%; 50-74%; or 75-100% viability to cells) | +++ (+, ++, and +++ mean the compound respectively shows 25-49%; 50-74%; or 75-100% viability to cells) | 25 to 49 | 75 to 100 | < 24 | < 24 | 0 to 24 | –
Cc1ccn(-c2cc(Cl)c(Cl)c3sc4c(c23)CCN(C(=O)CN)C4)n1 [Compound 96] | < 24 | < 24 | +++ (+, ++, and +++ mean the compound respectively shows 25-49%; 50-74%; or 75-100% viability to cells) | +++ (+, ++, and +++ mean the compound respectively shows 25-49%; 50-74%; or 75-100% viability to cells) | 0 to 24 | 25 to 49 | < 24 | < 24 | 25 to 49 | –
Cn1c2c(c3c(-c4ccc(N)nc4)cc(Cl)c(Cl)c31)CN(C(=O)C1CCCN1)CC2 (stereo not drawn) [Compound 17] | 25 to 49 | 75 to 100 | +++ (+, ++, and +++ mean the compound respectively shows 25-49%; 50-74%; or 75-100% viability to cells) | ++ (+, ++, and +++ mean the compound respectively shows 25-49%; 50-74%; or 75-100% viability to cells) | 25 to 49 | 75 to 100 | 25 to 49 | 75 to 100 | 0 to 24 | –
O=C(CO)N1CCc2[nH]c3c(Cl)c(Cl)cc(O)c3c2C1 [Compound 3] | < 24 | – | +++ (+, ++, and +++ mean the compound respectively shows 25-49%; 50-74%; or 75-100% viability to cells) | +++ (+, ++, and +++ mean the compound respectively shows 25-49%; 50-74%; or 75-100% viability to cells) | 50 to 74 | 75 to 100 | < 24 | < 24 | 75 to 100 | 75 to 100
